From patent US6712802B1, “Metabolic therapy directed at electron transport” (priority 1997, dated 2004)
Read-outs that look alike come from different tables or passages of the source.

Columns and labels:
[1] = tested on: isolated hearts; conditions: 5-minute succinate infusion
From the text: (§1) Spraque-Dawley rats (250 to 300 g; Sasco Inc., Omaha, Nebr.) were fasted overnight to standardize the levels of glycogen and fatty acids. The animal protocol was reviewed and approved by an appropriate Animal Care and Research Committee. All animals received humane care in compliance with the “Guide for the Care and Use of Laboratory Animals” (NIH Publication No. 85-23, revised 1985). All chemicals were obtained from Sigma (St. Louis, Mo.).
As previously described by Banerjee et al, the hearts from rats anticoagulated with heparin were excised, immediately arrested in iced oxygenated perfusate, placed on a modified Langendorff apparatus, and retrograded perfused at a constant pressure of 70 mm Hg with nonrecirculating Krebs-Henseleit solution saturated with a gas mixture of 92.5% O2 and 7.5% CO2 Banerjee et al., Circ. Res., 73, 649 (1993). A water-filled latex balloon was inserted into the left ventricle (LV) and the balloon volume was adjusted to achieve a stable LV end-diastolic pressure of 5 mm Hg. This volume was then kept constant for the duration of the study. Pacing wires were fixed to the right atrium, and the hearts were paced at 350 beats per minute except during ischemia and the first three minutes of reperfusion.
The left ventricular developed pressure (LVDP, in mm Hg) was used as an index of myocardial function and was continuously recorded with a computerized bridge amplifier/digitalizer (Maclab 8, AD Instruments) and a Macintosh AV 7100 (Apple Computer). Hearts unable to initially produce 90 to 120 mm Hg LVDP when paced at 350 beats per minute were discarded. A stopcock above the aortic root was turned to create global ischemia, during which time the heart was placed in a degassed humidified chamber at 37° C.
The myocardial cytochrome a,a3 redox state, oxymyoglobin (MbO2) and deoxymyoglobin, was continuously monitored using near infrared spectroscopy (NIRS). The use of NIRS to study cardiac metabolism was described previously. In this study, a single NIRS probe (as disclosed in co-pending U.S. patent application Ser. No. 08/672,625) containing five fiber optic bundles (four peripherally arranged to supply infrared light (700 to 1000 nm) and one fiber positioned 4 mm away to receive the transmitted light) was placed on the lift ventricle. For each heart, a signal reference zero value is set at the beginning of the study. The resultant signal changes are continuously processed and recorded using analytic algorithms to separate the effects of each of the signals. The resulting NIRS measurements were taken directly from the monitor and plotted in absorption units versus time. These strips were then printed and saved for subsequent analysis.
In the second phase of the study, 12 isolated hearts were placed on the Langendorff apparatus as described above. After the equilibration period, 5-minute infusions of succinate at concentrations of 0, 2 ,20 ,200, and 2000 μmol/L were delivered via a Harvard infusion pump directly into a port above the aortic cannula at 0.068 mL/minute. LVDP, heart rate, cytochrome a,a3 redox state, MbO2 and deoxymyoglobin were continuously monitored as described above.

[2] = tested on: isolated hearts
From the text: as §1
As previously described by Banerjee et al, the hearts from rats anticoagulated with heparin were excised, immediately arrested in iced oxygenated perfusate, placed on a modified Langendorff apparatus, and retrograded perfused at a constant pressure of 70 mm Hg with nonrecirculating Krebs-Henseleit solution saturated with a gas mixture of 92.5% O2 and 7.5% CO2 Banerjee et al., Circ. Res., 73, 649 (1993). […]
The left ventricular developed pressure (LVDP, in mm Hg) was used as an index of myocardial function and was continuously recorded with a computerized bridge amplifier/digitalizer (Maclab 8, AD Instruments) and a Macintosh AV 7100 (Apple Computer). […]
The myocardial cytochrome a,a3 redox state, oxymyoglobin (MbO2) and deoxymyoglobin, was continuously monitored using near infrared spectroscopy (NIRS). […] The resultant signal changes are continuously processed and recorded using analytic algorithms to separate the effects of each of the signals. […]

[3] = lower concentrations, non-ischemic heart

**Q.** `O=C(O)CCC(=O)O` [succinate] was tested. Which “LVDP (left ventricular developed pressure)” value (from here on “LVDP”) ([1]; 20 μmol/L) did it give?
**A.** not different from control

**Q.** What about the “cytochrome a,a3 redox state” value ([1]; 20 μmol/L) of the same compound?
**A.** reduction of the cytochrome a,a3 redox state

**Q.** And the “LVDP” value ([1]; 200 μmol/L)?
**A.** not different from control

**Q.** What about the “cytochrome a,a3 redox state” value ([1]; 200 μmol/L) of the same compound?
**A.** reduction of the cytochrome a,a3 redox state

**Q.** What about the “LVDP” value ([1]; 2000 μmol/L) of the same compound?
**A.** markedly reduced

**Q.** What about the “cytochrome a,a3 redox state” value ([1]; 2000 μmol/L) of the same compound?
**A.** markedly reduced

**Q.** What about the “LVDP” value [1, 3] of the same compound?
**A.** minimal effects

**Q.** And the “cytochrome a,a3 redox state” value [1, 3]?
**A.** minimal effects

**Q.** And the “cytochrome a,a3 redox state on reperfusion” value ([2]; 200 μmol/L succinate for first 5 minutes of reperfusion after 20 min global ischemia, versus control buffer)?
**A.** attenuation of the oxidation

**Q.** What about the “coupling relationship between oxyhemoglobin and the redox state of cytochrome a,a3” value ([2]; succinate given early in reperfusion at the described dosages) of the same compound?
**A.** restores the coupling relationship
